Assay results taken from patent US20100021941A1, “METHODS OF IDENTIFYING MODULATORS OF UBIQUITIN LIGASES” (PROGENRA, INCORPORATED, priority 2008, published 2010).

Key:
[1] = tested on: E3 ubiquitylation reaction containing E1, E2 (UbcH5c) and E3; experiment: E3 ligase inhibition assay using 5′-IAF-UBA1 detection and anti-ubiquitin immunoblot; type: biochemical, human; conditions: pre-incubated with various concentrations for 30 minutes at room temperature before adding ubiquitin and ATP; FIGS. 9A-D
Procedure: E3 ligase reactions contained 10 nM GST-Praja1, 500 nM 6× His-SUMO-CARP2 or 500 nM 6× His-SUMO-MuRF1 as E3s, 50 nM E1, 150 nM UbcH5c (E2), 500 ng Ubiquitin, 2 mM ATP, 50 mM Tris-HCl pH8.0, 5 mM MgCl2, 0.1 mM DTT. For measuring SCF^Atrogin-1 E3 ligase activity, the reaction was assembled essentially as described above except that the E3 ligase contained 6× His-SUMO-Atrogin-1, Cullin-1 (“Cul1”), Roc-1 (“Rbx-1 ”) and 6× His-Skp1 (250 nM each). In order to obtain large amounts of the Cul1-Rbx1 complex for the SCF complex, we used a procedure to overexpress the Cul1-Rbx1 complex in E. coli. Zheng, et al., Nature, 416(6882):703-9 (2002). The Cull gene was split into two halves (residues 1-410 and residues 411-776) and co-expressed with GST-tagged Rbx1 as three different polypeptide chains. A PCR product encoding Skp1 was generated using the primers 5′-[…]-3′ (SEQ ID NO:28) and 5′-[…]-3′ (SEQ ID NO:29) and human Skp1 cDNA as the template. […]
For inhibition assays, reactions containing E1, E2, and E3 were pre-incubated with various concentrations of NEM and ubistatin A for 30 minutes at room temperature before initiating the reaction by adding ubiquitin and ATP. […] The wells were washed with 1× PBS and readings were taken using a fluorescence plate reader with excitation and emission wavelengths of 485 nm and 535nm, respectively. […]

[2] = target: T1, E1, E2 and E3 coupled enzyme reaction (GST-E1/His6-UbcH5c/6× His-SUMO-CARP2 ligase) (Homo sapiens, UniProt P22314+P61077+Q8WZ73); experiment: E3 ligase assay (autoubiquitylation) on 6× His-SUMO-UBA2 coated plates, anti-ubiquitin antibody/FITC fluorescence detection; type: biochemical; conditions: enzymes pre-incubated with compound 30 minutes at room temperature; reaction 60 minutes at 37° C.; 500 nM 6× His SUMO-CARP2; triplicate; FIG. 6A
T1 construct: fused on or other part: GST on E1; His6 on UbcH5c; 6x His-SUMO on CARP2; The plate is coated with 6x His-SUMO-UBA2 (yeast Rad23 residues 351-398) as capture reagent
T1 sequence (P22314 2-1058): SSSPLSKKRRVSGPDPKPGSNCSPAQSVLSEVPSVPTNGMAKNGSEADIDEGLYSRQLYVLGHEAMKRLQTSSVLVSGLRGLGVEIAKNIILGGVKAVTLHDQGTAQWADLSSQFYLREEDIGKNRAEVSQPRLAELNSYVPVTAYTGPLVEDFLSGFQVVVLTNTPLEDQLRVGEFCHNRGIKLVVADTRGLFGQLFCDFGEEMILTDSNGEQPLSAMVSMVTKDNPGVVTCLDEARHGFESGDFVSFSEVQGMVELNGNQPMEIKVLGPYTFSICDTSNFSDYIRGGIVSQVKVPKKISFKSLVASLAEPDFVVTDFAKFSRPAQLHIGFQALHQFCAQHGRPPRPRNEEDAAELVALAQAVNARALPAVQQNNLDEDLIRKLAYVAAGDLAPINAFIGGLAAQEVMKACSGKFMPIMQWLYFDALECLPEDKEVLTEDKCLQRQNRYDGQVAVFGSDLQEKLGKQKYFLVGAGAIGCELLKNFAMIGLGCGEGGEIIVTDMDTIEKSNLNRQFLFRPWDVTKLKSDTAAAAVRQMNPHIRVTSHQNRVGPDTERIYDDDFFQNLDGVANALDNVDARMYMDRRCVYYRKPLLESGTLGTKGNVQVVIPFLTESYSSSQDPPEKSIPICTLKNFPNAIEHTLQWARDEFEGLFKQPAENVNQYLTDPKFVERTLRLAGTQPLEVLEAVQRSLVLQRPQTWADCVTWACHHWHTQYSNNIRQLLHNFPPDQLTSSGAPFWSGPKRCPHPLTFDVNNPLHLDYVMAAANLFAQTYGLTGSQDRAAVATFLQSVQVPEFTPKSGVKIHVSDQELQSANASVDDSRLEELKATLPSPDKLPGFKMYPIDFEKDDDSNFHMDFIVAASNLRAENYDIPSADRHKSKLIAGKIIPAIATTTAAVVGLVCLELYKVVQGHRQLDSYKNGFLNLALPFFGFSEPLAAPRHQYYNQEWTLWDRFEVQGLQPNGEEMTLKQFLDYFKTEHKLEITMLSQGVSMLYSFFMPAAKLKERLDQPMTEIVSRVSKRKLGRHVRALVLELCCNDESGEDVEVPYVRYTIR
T1 sequence (P61077 whole entry, the tested form may be a part): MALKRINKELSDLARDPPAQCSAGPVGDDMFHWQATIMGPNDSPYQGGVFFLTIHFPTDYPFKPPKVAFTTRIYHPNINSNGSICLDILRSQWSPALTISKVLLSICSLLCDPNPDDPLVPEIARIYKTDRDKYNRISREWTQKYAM
T1 sequence (Q8WZ73 whole entry, the tested form may be a part): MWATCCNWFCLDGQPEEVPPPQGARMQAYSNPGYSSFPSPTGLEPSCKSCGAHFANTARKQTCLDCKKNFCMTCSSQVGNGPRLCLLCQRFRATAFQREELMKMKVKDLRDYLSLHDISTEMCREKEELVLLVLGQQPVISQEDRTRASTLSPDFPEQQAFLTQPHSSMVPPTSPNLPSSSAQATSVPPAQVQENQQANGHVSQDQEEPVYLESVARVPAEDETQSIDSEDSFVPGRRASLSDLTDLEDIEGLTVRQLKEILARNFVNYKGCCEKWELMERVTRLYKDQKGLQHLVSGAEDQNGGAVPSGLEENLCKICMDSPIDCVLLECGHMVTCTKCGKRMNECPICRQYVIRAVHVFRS
Procedure: Medium binding plates (Costar, USA) were coated with 100 μl of 0.1 mg/ml solution of 6× His-SUMO-UBA2 overnight at 4° C. The plates were blocked with 200 μl of 3% BSA in 1× phosphate buffered saline (1× PBS, pH 7.4) for 3 hours at 4° C. and washed with 1× PBS three times. E3 reactions were carried out as follows. For IC50 experiments, various concentrations of NEM, iodoacetamide, and ubistatin A were added to individual wells in triplicate. Controls contained 5 μl of 10% DMSO or 50 mM NEM. The compounds were supplemented with 20 μl of enzyme mixture containing GST-E1 (10 nM)/His6-UbcH5c (100 nM), 6× His SUMO-CARP2 (500 nM) prepared in assay buffer (50 mM Tris-HCl, pH8.0, 2 mM MgCl2, 0.1 mM DTT) and incubated at room temperature for 30 minutes. A pFastBac-GST-E1 vector was expressed and purified from insect cells according to published methods. Beaudenon and Huibregtse, Methods Enzymol, 398: 3-8 9 (2005). A PCR product encoding UbcH5c was generated using the primers 5′-[…]-3′ (SEQ ID NO:24) and 5′-[…]-3′ (SEQ ID NO:25) and human UbcH5c cDNA as the template. The PCR fragment was digested with BsaI and BamHI, and then ligated into pET24D (Novagen) generating 6× His-UbcH5c. […] Plates were washed six times with 1× PBS and readings were taken using the fluorescence plate reader with excitation and emission wavelengths of 485 nm and 535 nm, respectively.

SMILES | inhibition of the E3 ubiquitylation assay [1] | IC50 [2] [µM]
O=C(Nc1ccc(/C=C/c2ccc(NC(=O)c3cc(S(=O)(=O)O)c4cccnc4c3O)cc2S(=O)(=O)O)c(S(=O)(=O)O)c1)c1cc(S(=O)(=O)O)c2cccnc2c1O [ubistatinA] | inhibited | 0.421
CCN1C(=O)C=CC1=O [NEM] | inhibited | 34.2
